Test results: PubChem BioAssay (NCI)
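Compound exposure: 48 hours, 5 concentrations, 96-well plates. The concentration for 50% growth inhibition is given as GI50. TGI: concentration producing complete growth inhibition.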

Key:
Test in all cases: NCI-60 cell line screen, 48 h
[1] = system: A549 NSCLC
[2] = system: CCRF-CEM leukemia
[3] = system: HOP-62 NSCLC
[4] = system: HT29 colon
[5] = system: KM12 colon
[6] = system: SK-MEL-2 melanoma
[7] = system: SNB-75 CNS
[8] = system: SW-620 colon
[9] = system: UACC-62 melanoma
[10] = system: PC-3 prostate

With CC/C=C\C/C=C\C/C=C\CCCCCCCC(=O)OCC(O)CO (centres undefined) the TGI [1] was greater than 100 µM, the TGI [2] was greater than 72.9 µM and the TGI [3] was greater than 100 µM. For the same molecule, the TGI [4] was greater than 100 µM, the TGI [5] was greater than 70.9 µM and the TGI [6] was greater than 100 µM. For the same molecule, the TGI [7] was greater than 100 µM, the TGI [8] was greater than 96.4 µM and the TGI [9] was greater than 100 µM.
In the case of CCOC(=O)C1=C(C)N(c2ccc(Cl)cc2)[C@]2(C#N)C(O)=C(Cl)C(Cl)=C(O)[C@]12C#N, the GI50 [1] is reported as greater than 100 µM, the TGI [1] is reported as greater than 100 µM and the GI50 [2] is reported as 25.6 µM. It also gave a TGI [2] of 75.9 µM, a GI50 [3] greater than 100 µM and a TGI [3] greater than 100 µM. The GI50 [4] was 51.9 µM, the TGI [4] was greater than 100 µM and the GI50 [5] was 47.9 µM. It also gave a TGI [5] greater than 100 µM, a GI50 [6] greater than 100 µM and a TGI [6] greater than 100 µM. The GI50 [7] was 26.1 µM, the TGI [7] was 83 µM and the GI50 [8] was 66.3 µM. The TGI [8] was greater than 100 µM.
COc1ccc(-c2cc(Cc3cccs3)c(=O)[nH]n2)cc1 gave a TGI [1] greater than 100 µM, a TGI [4] greater than 100 µM and a TGI [5] greater than 100 µM. The TGI [6] was greater than 100 µM, the TGI [7] was greater than 100 µM and the TGI [8] was greater than 100 µM. It also gave a TGI [9] greater than 100 µM.
With O=C(Nc1ccc(OCc2nnc(-c3ccc(Cl)cc3)o2)c(F)c1)Nc1ccc(Cl)c(C(F)(F)F)c1 the GI50 [1] was 2.65 µM, the TGI [1] was 11.7 µM and the GI50 [3] was 0.793 µM. For the same molecule, the TGI [3] was 5.84 µM, the GI50 [4] was 2.29 µM and the TGI [4] was 5.69 µM. For the same molecule, the GI50 [5] was 1.71 µM, the TGI [5] was 4.96 µM and the GI50 [10] was 1.84 µM. It also gave a TGI [10] of 7.87 µM, a GI50 [6] of 3.17 µM and a TGI [6] of 9.48 µM. For the same molecule, the GI50 [7] was 1.44 µM, the TGI [7] was 6.29 µM and the GI50 [8] was 2.9 µM. It also gave a TGI [8] of 11 µM, a GI50 [9] of 1.54 µM and a TGI [9] of 4.21 µM.
Molecule CCC(=O)C12OC3OC(C)(C)OC3C1OC(C)(C)O2 (centres undefined) has a TGI [1] greater than 100 µM, a TGI [2] greater than 100 µM and a TGI [3] greater than 100 µM. It also gave a TGI [4] greater than 100 µM, a TGI [5] greater than 100 µM and a TGI [6] greater than 100 µM. The TGI [7] was greater than 100 µM, the TGI [8] was greater than 100 µM and the TGI [9] was greater than 100 µM.
With CCN(CC)CC1c2ccccc2C(CNc2ccccc2)N1C (centres undefined) the TGI [1] was greater than 100 µM, the TGI [2] was greater than 100 µM and the TGI [3] was greater than 100 µM. For the same molecule, the TGI [5] was greater than 100 µM, the TGI [6] was greater than 100 µM and the TGI [7] was greater than 100 µM. The TGI [8] was greater than 100 µM and the TGI [9] was greater than 100 µM.
FC(F)(F)c1ccc(-c2cnc(-c3ncon3)nc2NC2CCCCCC2)cc1 was tested, and the GI50 [1] was 38 µM, the TGI [1] was greater than 100 µM and the GI50 [2] was 22.9 µM. For the same molecule, the TGI [2] was 60.4 µM, the GI50 [3] was 76.8 µM and the TGI [3] was greater than 100 µM. It also gave a GI50 [4] of 34.7 µM, a TGI [4] greater than 100 µM and a GI50 [5] of 36.3 µM. The TGI [5] was greater than 100 µM, the GI50 [10] was 24.6 µM and the TGI [10] was 86.5 µM. The GI50 [7] was 50.5 µM, the TGI [7] was greater than 100 µM and the GI50 [8] was 43.3 µM. The TGI [8] was greater than 100 µM, the GI50 [9] was 48.6 µM and the TGI [9] was greater than 100 µM.
With NNC(=O)CS(=O)(=O)Nc1ncccn1 the TGI [1] was greater than 100 µM, the TGI [3] was greater than 100 µM and the TGI [4] was greater than 100 µM. The TGI [5] was greater than 100 µM, the TGI [10] was greater than 100 µM and the TGI [6] was greater than 100 µM. For the same molecule, the TGI [7] was greater than 100 µM, the TGI [8] was greater than 100 µM and the TGI [9] was greater than 100 µM.
Work on O=C(/C=C\c1cccc([N+](=O)[O-])c1)/C=C/c1cccc([N+](=O)[O-])c1 yielded a GI50 [1] of 3.21 µM, a TGI [1] of 12.2 µM and a GI50 [4] of 1.4 µM. For the same molecule, the TGI [4] was 3.32 µM, the GI50 [5] was 1.73 µM and the TGI [5] was 3.3 µM. For the same molecule, the GI50 [10] was 3.17 µM, the TGI [10] was greater than 100 µM and the GI50 [6] was 19.5 µM. The TGI [6] was 49.4 µM, the GI50 [7] was 13.3 µM and the TGI [7] was 66.6 µM. The GI50 [8] was 1.9 µM, the TGI [8] was 4.53 µM and the GI50 [9] was 14.8 µM. The TGI [9] was greater than 100 µM.
In the case of O=C1CC(c2c[nH]c3ccccc23)C(=O)N1 (centres undefined), the TGI [1] is reported as greater than 100 µM, the TGI [2] is reported as greater than 100 µM and the TGI [3] is reported as greater than 100 µM. The TGI [4] was greater than 100 µM, the TGI [5] was greater than 100 µM and the TGI [6] was greater than 100 µM. For the same molecule, the TGI [7] was greater than 100 µM, the TGI [8] was greater than 100 µM and the TGI [9] was greater than 100 µM.
In the case of COc1cc2c3c(n(C)c(=O)c2cc1OC)-c1cc2c(cc1/C3=C\CCCCN1C(=O)c3ccccc3C1=O)OCO2, the GI50 [1] is reported as 7.03 µM, the TGI [1] is reported as 27.9 µM and the GI50 [2] is reported as 9.71 µM. For the same molecule, the TGI [2] was 43.7 µM, the GI50 [3] was 17.4 µM and the TGI [3] was 70.4 µM. For the same molecule, the GI50 [4] was 18 µM, the TGI [4] was greater than 100 µM and the GI50 [5] was 59.3 µM. For the same molecule, the TGI [5] was greater than 100 µM, the GI50 [10] was 10.5 µM and the TGI [10] was 51.6 µM. The GI50 [7] was 28.5 µM, the TGI [7] was greater than 100 µM and the GI50 [8] was 7 µM. It also gave a TGI [8] greater than 100 µM, a GI50 [9] of 6.01 µM and a TGI [9] of 37.6 µM.
For CC(=O)Nc1ccc(SC#N)c2c(NC(C)=O)cccc12, the TGI [1] was greater than 100 µM, the TGI [2] was greater than 90.6 µM and the TGI [3] was greater than 100 µM. The TGI [4] was greater than 100 µM, the TGI [5] was greater than 100 µM and the TGI [6] was greater than 100 µM. It also gave a TGI [7] greater than 100 µM, a TGI [8] greater than 100 µM and a TGI [9] greater than 100 µM.
Work on Cc1c(/C=N/N=C/c2[nH]c(C(=O)OC(C)(C)C)c(C)c2C)[nH]c(C(=O)OC(C)(C)C)c1C yielded a TGI [1] greater than 100 µM, a TGI [2] greater than 100 µM and a TGI [3] greater than 100 µM. It also gave a TGI [4] greater than 100 µM, a TGI [5] greater than 100 µM and a TGI [6] greater than 100 µM. For the same molecule, the TGI [7] was 88.1 µM, the TGI [8] was greater than 100 µM and the TGI [9] was greater than 100 µM.
Work on COc1cc(C(=O)C/C(CCC(=O)Nc2ccccc2[N+](=O)[O-])=N\NC(N)=O)ccc1O yielded a TGI [1] greater than 100 µM, a TGI [2] greater than 100 µM and a TGI [3] greater than 100 µM. It also gave a TGI [4] greater than 100 µM, a TGI [5] greater than 100 µM and a TGI [6] greater than 100 µM. It also gave a TGI [7] greater than 100 µM, a TGI [8] greater than 100 µM and a TGI [9] greater than 100 µM.
Work on COC(=O)C1(C)CCc2c(OC)ccc(OC)c2C1=O (centres undefined) yielded a TGI [1] greater than 100 µM, a TGI [2] greater than 100 µM and a TGI [3] greater than 100 µM. It also gave a TGI [5] greater than 100 µM, a TGI [6] greater than 100 µM and a TGI [7] greater than 100 µM. For the same molecule, the TGI [8] was greater than 100 µM and the TGI [9] was greater than 100 µM.
With Fc1ccc(C2SCc3nc4ccccc4n32)c(F)c1 (centres undefined) the TGI [1] was greater than 100 µM, the TGI [2] was greater than 100 µM and the TGI [3] was greater than 100 µM. The TGI [4] was greater than 100 µM, the TGI [5] was greater than 100 µM and the TGI [6] was greater than 100 µM. For the same molecule, the TGI [7] was greater than 100 µM, the TGI [8] was greater than 100 µM and the TGI [9] was greater than 100 µM.
Molecule CC1(O)C=CC(=O)C=C1 has a TGI [1] greater than 100 µM, a TGI [2] greater than 77 µM and a TGI [3] greater than 79.9 µM. For the same molecule, the TGI [4] was greater than 100 µM, the TGI [5] was greater than 75.4 µM and the TGI [6] was 56 µM. The TGI [7] was greater than 100 µM, the TGI [8] was greater than 100 µM and the TGI [9] was 36.2 µM.
For CO/N=C(\COc1ccc2c(c1)[nH]c1ccccc12)c1ccc(F)cc1, the GI50 [1] was 29.6 µM, the TGI [1] was greater than 100 µM and the GI50 [2] was 22.6 µM. For the same molecule, the TGI [2] was 53.9 µM, the GI50 [3] was 6.44 µM and the TGI [3] was 26.7 µM. For the same molecule, the GI50 [4] was greater than 100 µM, the TGI [4] was greater than 100 µM and the GI50 [5] was greater than 100 µM. The TGI [5] was greater than 100 µM, the GI50 [10] was 30.6 µM and the TGI [10] was greater than 100 µM. The GI50 [7] was 9.17 µM, the TGI [7] was 89.6 µM and the GI50 [8] was greater than 100 µM. The TGI [8] was greater than 100 µM, the GI50 [9] was 95.9 µM and the TGI [9] was greater than 100 µM.
For O=C1OC(=O)C(=C\c2ccc3c(c2)OCO3)/C1=C/c1ccc2c(c1)OCO2, the TGI [1] was greater than 100 µM, the TGI [2] was greater than 88.6 µM and the TGI [3] was greater than 100 µM. The TGI [4] was greater than 100 µM, the TGI [5] was greater than 100 µM and the TGI [10] was greater than 100 µM. It also gave a TGI [6] greater than 100 µM, a TGI [8] greater than 100 µM and a TGI [9] greater than 100 µM.
In the case of O=C(NC1CCCCC1)NS(=O)(=O)c1ccc2c(c1)CCC2, the TGI [1] is reported as greater than 100 µM, the TGI [2] is reported as greater than 100 µM and the TGI [5] is reported as greater than 100 µM. The TGI [6] was greater than 100 µM, the TGI [7] was greater than 100 µM and the TGI [8] was greater than 100 µM. The TGI [9] was greater than 100 µM.
